For this assay, the system named is colitis in mice. Description: Colitis in mice (dextran sulfate sodium (DSS)-induced colitis) after CaSR-activating nutrients. Type of assay: in vivo. The settings on record: three-to-six-week-old mice received CaSR-activating nutrients (calcium, spermine, tryptophan, cinacalcet); figure legends only. As to the method: Briefly, three-to-six-week-old, pre-pubertal rats and mice (WT v. villin/cre-floxed CaSR) received antigens or CaSR-activating nutrients (calcium, spermine, tryptophan, and cinacalcet). After treatment, mice and rats were sacrificed, and epithelial barrier, cytokine expression, dendritic cell, T cell, and B cell activation, and response to inflammatory stress were determined (FIG. 2).

For the compound `C[C@@H](NCCCc1cccc(C(F)(F)F)c1)c1cccc2ccccc12` [cinacalcet], the effect on colitis entry was “can be used to treat colitis”.
